Results from patent US20040028610A1, “Method of increasing the sensitivity of mammography” (priority 2003, published 2004).
“Also recorded” adds a separate entry of the source.

Experiments:
breast tissue [1] = assay: Treatment with topical androgen preparation (PCA cream), then mammography and manual breast examination; assay type: in vivo, human (pre and postmenopausal women)
Source text: (§1) In advance of the mammographic procedure, patients were instructed to not wear deodorant (the crystals cause difficulty in reading the films). […] A Picker Digital Mammogram was used to take the frontal and side views of the breast tissue bilaterally. Minimums of two views were taken per breast. The films were then interpreted by a radiologist with experience in interpreting mammograms and graded with the BI-RADS system.
Patients in need of breast cancer examinations were provided topical formulations for administration of androgen preparations in the outpatient setting. Lakeview Pharmacy, Inc made up the compounded equivalent of Depo-Testosterone (150 mg of testosterone cypionate mixed in PCA cream) with an application of 6 inches squeezed from a multi-use tube of the mixture and rubbed into the skin on a daily basis. The androgen preparation was administered as a total monthly dose from about 150 mg to about 200 mg. The formulation was given to approximately 15 pre and postmenopausal women ranging in age from 24 to 80 years of age. The patient was then scheduled for a mammogram at least one month but not more than two months after administration of the androgen preparation. Mammography was performed as described in Example 1.

breast tissue [2] = assay: Treatment with parenteral (intramuscular) androgen preparation, then mammography and manual breast examination; assay type: in vivo, human (pre and postmenopausal women)
Protocol: Patients in need of breast cancer examinations were provided parenteral administration of androgen preparations in the clinical setting. Lakeview Pharmacy, Inc. prepared the compounded equivalent of Depo-Testosterone (Testosterone Cypionate 200 mg/ml dissolved in Cottonseed Oil and preserved with Benzyl Benzoate USP and Benzyl Alcohol NF.) in a multi-use vial. The androgen preparation was administered in a dose of about 150 mg to about 200 mg per month for the treatment of fibrocystic breast disorders. The treating physician delivered the preparation intramuscularly in a single dose. The preparation was given to approximately 40 pre and postmenopausal women ranging in age from 24 to 80 years of age. The patients were then scheduled for a mammogram at least one month but not more than three months after commencement of administration of the androgen preparation.
as §1

breast tissue [3] = assay: Administration of testosterone to female patients with dense or fibrous breasts (summary statements); assay type: in vivo, human (pre- and post-menopausal women)
[4] = patients presenting with dense breast tissue and attendant mastalgia
[5] = pre- and post-menopausal women with fibrous or dense breasts

## C[C@]12CC[C@H]3[C@@H](CCC4=CC(=O)CC[C@@]43C)[C@@H]1CC[C@@H]2OC(=O)CCC1CCCC1 [Testosterone Cypionate]
Breast tissue [1]; topical
  alteration of the menstrual cycle by the medication: nor did the medication alter the menstrual cycle
Breast tissue [1]; topical PCA cream daily, total monthly dose about 150 mg to about 200 mg, approximately 15 women, seen after only one monthly treatment
  radiographic breast density on mammographic images: appreciable reduction
Breast tissue [1]; topical PCA cream daily, total monthly dose about 150 mg to about 200 mg, seen after only one monthly treatment
  breast palpability by manual examination: improved
Breast tissue [1]; topical, most significant in those patients with dense breasts
  mammographic changes in density, patients affected: noted in all patients
Breast tissue [1]; topical, sustained treatment for 6 or more months, some lesions
  lesions requiring 6-month follow up, at second mammogram: disappeared
Breast tissue [1]; topical, two months of androgen treatment prior to examination
  effects on radiographic and palpable density after two months of treatment (versus one month): More significant effects
Breast tissue [2]
  alteration of the menstrual cycle by the medication: nor did the medication alter the menstrual cycle
Breast tissue [2]; about 150 mg to about 200 mg per month, approximately 40 women, seen after only one monthly treatment, films graded with BI-RADS
  radiographic breast density on mammographic images: appreciable reduction
Breast tissue [2]; about 150 mg to about 200 mg per month, seen after only one monthly treatment
  breast palpability by manual examination: improved
Breast tissue [2]; most significant in those patients with dense breasts
  mammographic changes in density, patients affected: noted in all patients
Breast tissue [2]; sustained treatment for 6 or more months, some lesions
  lesions requiring 6-month follow up, at second mammogram: disappeared
Breast tissue [2]; two months of androgen treatment prior to examination
  effects on radiographic and palpable density after two months of treatment (versus one month): More significant effects

## C[C@]12CC[C@H]3[C@@H](CCC4=CC(=O)CC[C@@]43C)[C@@H]1CC[C@@H]2O [testosterone]
Breast tissue [3]; female patients with dense breast tissue
  visualization of breast tissue in mammographic procedures: significantly improved
Breast tissue [3]; [4]
  mammographic opacity and overall density: marked reduction
  palpability of breast tissue during manual examination: significantly improved
Breast tissue [3]; [5]
  number or size of fibrous (fibrocystic) breast lesions: decrease; also recorded: reduced
  palpable breast density: decrease
  radiographic density: decrease
  symptoms secondary to cyclic causes (sense of breast fullness or heaviness): eliminated; also recorded: reduced
